Non-standard residues stand in square brackets, D forms with d.
How the values were obtained:
[1] = system: intact rats and animals with reserpine-induced depression; experiment: Popsolt swim test, intact rats and animals with reserpine-induced depression; format: in vivo, rat; conditions: for Number of immobilization episodes / Total duration of immobilization / Latent immobilization period: imipramine 15 mg/kg i.p., tetrapeptide (LYS) 0.02 mg/kg i.n.
Method: The experiment was conducted on 16 white random-bred adult male rats weighing:
180-220 g. The antidepressant activity of tetrapeptide (LYS), a neuroprotector, at a 0.02 mg/kg dose intranasally (i.n.) was evaluated. […] The experiment was conducted in two stages. […] 25-30 min. prior to the start of the experiment, the animals were administered their respective drugs. The animals in the control group were administered 0.9% NaCl solution i.p. and i.n. in the volume equal to the volume of the medications. After that, the animals of all groups were placed in the open field (OF) for 3 min., and their locomotor (number of crossed squares), orientation, and exploratory (number of upright positions and explored openings) activity as well as their emotional reactions (fecal boluses, urination, grooming) were evaluated. The indicators of depression in the animals (latent immobilization period, the number of such instances, and their total duration) were evaluated in the Popsolt swim test (PST) over 6 min. In the next 2 days, all the medications were administered at the same dose once a day; the last administration—30 min before the depressogenic sympatholytics of reserpine. Reserpine was administered on the 3rd day (2nd stage of the experiment) at a 4 mg/kg dose i.p. (as a suspension stabilized with Tween-80). Animals in all 3 groups were evaluated 6-7 hr. later in the OF and PST.
Test results were statistically processed. When the data distribution was normal, the parametric Student's t-distribution test was applied, when it was absent, the non-parametric MannWhitney U-test was used. When processing the results in an alternative form (presence/absence of the indicator), Fisher's angular transformation φ was applied. Wilcoxon paired t-criterium test was used for the intra-group statistical evaluation of the changed in the animal test results prior and post simulated depression. The results were considered to be statistically significant when p<0.05.

rat models with AD = experiment: Open field (OF) test, scopolamine-induced Alzheimer's disease model; format: in vivo; conditions: scopolamine AD rats; 0.1 mg/kg i.n. 10 days; p<0.05
Method: White random-bred adult male rats weighing 200-240 g were used. Groups of 7 animals per group were formed. 1st group—control, 2nd—pathology, 3rd—comparator drug, 4th-6th—neuropeptides.
(§1) The drugs were administered daily, once a day.
After a course of treatment with the preparations, the CNS function of the animals was evaluated according to the open field (OF), extrapolation escape (EE), and conditioning passive avoidance reflex (CPAR) tests [Guidelines for conducting nonclinical studies of pharmaceuticals/edited by A. N. Mironov, MD, PhD, Part 1, M.: Grief and K, 2012-944 p.; Methods of behavior analysis in neuroscience—London, New York, Washington: CRCPress, 2001.-329 p.], and also The Porsolt swim test (PST) [Methods of behavior analysis in neuroscience—London, New York, Washington: CRCPress, 2001.-329 p; Porsolt R. D. Depression: A new animal model sensitive to antidepressant treatments/R. D. Porsolt, M. LePichon, M. Oalfre//Nature.—1977.—Vol. 266.—P. 730-732.].
The OF and EE tests were conducted on the 1st day, PST—on the 2nd day, CPAR—on the 1st and 10th day post treatment with the preparations. […] The antiamnesic action (AA) in the CPAR test was calculated using Butler's formula [K. S. Radionova. […] The brain was extracted and weighed, and the brain weight coefficient (BWC) was calculated. […]

[2] = Arteriovenous glucose difference in rat models with Alzheimer's disease; format: in vivo; conditions: tetrapeptide 0.1 mg/kg; as a trend
Method: as §1
The OF and EE tests were conducted on the 1st day, PST—on the 2nd day, CPAR—on the 1st and 10th day post treatment with the preparations. The CPAR proficiency criterium—remaining in the light area of the CPAR device during at least 180 sec. The antiamnesic action (AA) in the CPAR test was calculated using Butler's formula [K. S. Radionova. Original nootropic preparation Noopept ameliorates memory loss caused by the M- and N-choline receptor blockade in rats/K. S. Radionova, A. P. Bel'nik, R. U. Ostrovskaya//Bul experim. Biology and Medicine.—2008.—T.146, No 1.—pp 65-68]. After that, the animals were removed from the experiment by administering a narcotic, followed by decapitation. The brain was extracted and weighed, and the brain weight coefficient (BWC) was calculated. […] Glucose levels in whole arterial (common carotid artery) and venous (venous cerebral sinus) blood were determined by the glucose oxidase test, the difference in the arterial-venous glucose content was calculated (glucose consumption marker). The levels of average weight molecules—the toxic products of cell biodegradation damaged during the disease (nucleoside derivatives, peptoids, glucuronic acid salts, etc.) in the blood serum (AWM) were calculated [A. N. Kovalevsky. […]

[3] = R - reserpine-induced depression
[4] = reserpine-induced depression, p<0.05

With “acetyl-D-Lys-Lys-Arg-Arg-amide (Ac-[dK]KRR-NH2; SMILES CC(=O)N[C@H](CCCCN)C(=O)N[C@@H](CCCCN)C(=O)N[C@@H](CCCNC(=N)N)C(=O)N[C@@H](CCCNC(=N)N)C(N)=O) [tetrapeptide (LYS), peptide acetyl-X-ARG-ARG-amide, X = D- and L-amino acid residues of lysine]” the “Number of immobilization episodes” value ([1]; I - intact animals) was 1.2 ± 0.6, the “Total duration of immobilization” value ([1]; I - intact animals) was 4.0 ± 2.7 s and the Latent immobilization period ([1]; I - intact animals, 6 min) was 214.6 ± 66.7 s. For the same substance, the Latent immobilization period [1, 3] was 170.8 ± 34.1 s, the “Number of immobilization episodes” value [1, 3] was 3.0 ± 0.38 and the “Total duration of immobilization” value [1, 3] was 7.8 ± 2.3 s. For the same substance, the “Latent immobilization period, % change reserpine-induced depression vs. intact animals” value ([1]; R vs I) was “(−20.4)^ %”, the “Number of immobilization episodes, % change reserpine-induced depression vs. intact animals” value ([1]; R vs I) was “(+150.0%)” and the “Total duration of immobilization, % change reserpine-induced depression vs. intact animals” value ([1]; R vs I) was “(+95.0%)”. For the same substance, the “increase of the latent immobilization period compared to the control” value ([1]; intact animals, p<0.05) was 3.5 times, the “reduction of the number of immobilization periods compared to the control” value ([1]; intact animals, p<0.05) was 11.5 times and the “reduction of total duration of immobilization compared to the control” value ([1]; intact animals, p<0.05) was 16.1 times. For the same substance, the “increase of the latent immobilization period compared to the control” value [1, 4] was 4.5 times, the “reduction of the number of immobilization episodes compared to the control” value [1, 4] was 2.6 times and the “reduction of total duration of immobilization compared to the control” value [1, 4] was 3.6 times. The “reduction of the number of grooming acts in the OF” value (rat models with AD) was 44.7% and the “glucose utilization in the brain” value [2] was “improved glucose utilization”.
